Results as given in paper PMC2749869, “Reversal of oncogene transformation and suppression of tumor growth by the novel IGF1R kinase inhibitor A-928605” (BMC Cancer, 2009).
“Also recorded” adds a separate entry of the source.

What was measured:
NIH-3T3 CD8-IGF1R cells [1] = test: DNA microarray analysis, CD8-IGF1R cells; format: cell-based; settings: 1 μM, 24 hours
Description: Cells were treated with 1 μM of compound or DMSO control ([…] final concentration) and grown under normal conditions for 24 hours. Cells were then directly lysed in QIAzol RNA lysis reagent (Qiagen, Valencia, CA). Samples were homogenized using an Ultra Turrax T 25 homogenizer (IKA, Wilmington, SC) and then processed with the RNeasy 96 Universal Tissue 8000 kit (Qiagen, Valencia, CA) using a BioRobot 3000 liquid handler (Qiagen, Valencia, CA) and a Sigma 4K15C centrifuge (Sigma, Osterode am Harz, Germany) according to the Qiagen-prescribed protocol. […] GeneChip Operating Software (v1.4.036) was used to quantify perfect match and mismatch features on the scanned microarray images. After quantification, quality control was assured using the Affymetrix Power Tools Quality Reporter (v1.0.04) quality control metrics.
Data normalization and analysis were performed using Resolver 7.0 software (Rosetta Inpharmatics, Seattle, WA). Ratios were built for the average of each treatment versus the group average and a p-value was calculated for every-fold change using the Resolver Affymetrix error model. […]

NIH-3T3 CD8-IGF1R cells [2] = test: Soft agar anchorage-independent growth assay; format: cell-based; settings: 1 μM, three weeks
Description: (§1) Cells grown in soft agar were plated at 5,000 cells/well in 12-well tissue culture plates in a top layer of 0.3% noble agar on a 0.7% bottom layer. Media containing the final desired concentration of small molecule inhibitor was used as the agar overlay. For proliferation assays, 5,000 cells per well were plated in 96-well tissue culture treated plates and allowed to attach overnight. The following day small molecule inhibitors or DMSO control were added in duplicate at the indicated concentrations and cells were placed in tissue culture incubators for 72 hours. Cell viability was determined by an MTS assay (CellTiter Aqueous One, Promega, Madison, WI).
Supplementary file 1471-2407-9-314-S2.jpeg: Additional File 2 Supplementary Figure S2. […] Cells were plated in soft agar with an overlay containing DMSO control (left) or a final concentration of 1 μM A-928605 (right). Cells were allowed to grow in a tissue culture incubator for three weeks before imaging. The 3T3 vector control line was not capable of anchorage-independent growth in soft agar (data not shown). Click here for file

IR = IR (Homo sapiens, UniProt P06213); test: In vitro kinase panel (kinome profile), IR; format: biochemical
Description: (§2) Figure 1 Chemical structure and activity of A-928605. A, The chemical name of A-928605 is 3-(2-(2-chlorobenzyl)-1 H-benzo [d]imidazol-5-yl)-1-((1 r, 4 r)-4-morpholinocyclohexyl)-1 H-pyrazolo [3,4-d]pyrimidin-4-amine. B, Kinome profile analysis of A-928605 on 156 unique kinases. Heat map colors correspond to the relative Ki against each kinase, where Ki greater than 1,000 nM are colored green, near 100 nM are yellow and Ki of roughly 10 nM are shaded red.

MiaPaCa-2 flank tumors = test: MiaPaCa-2 pancreatic xenograft flank model; format: in vivo, mice; settings: A-928605 37.5 mg/kg i.p. b.i.d. 20 days; cetuximab 30 mg/kg i.p. 3×/week, 6 doses
Description: All animal studies were conducted in accordance with the guidelines established by the internal Institutional Animal Care and Use Committees. For CD8 IGF1R flank tumors, 5.0 × 10^5 cells/mouse were mixed with an equal volume of Matrigel (BD Biosciences) and injected subcutaneously into the flank of 6- to 8-week-old female nu/nu mice (22 g; Charles River Laboratories). The tumors were allowed to grow approximately 225 mm^3, and mice were reassigned into treatment groups (N = 10) based on tumor volume. At the initiation of treatment, the mean tumor volume ± SEM of the groups was approximately 231 ± 10 mm^3. For MiaPaCa-2 flank tumors, 1.0 × 10^6 cells/mouse were mixed with an equal volume of Matrigel and injected subcutaneously into the flank of 6- to 8-week-old female SCID mice (20 g; Charles River Laboratories). The tumors were allowed to grow approximately 225 mm^3, and mice were reassigned into treatment groups (N = 10) based on tumor volume. […] In all flank models, tumor growth was periodically analyzed by measurement with digital calipers and tumor volume was estimated from the formula (L × W ^2)/2. For all flank models, the effect of treatment on tumor growth rate was assessed by determining %T/C [(mean tumor volume of treated group on day X ÷ mean tumor volume of control group on day X) × 100]. […]

CD8 IGF1R flank tumors = test: CD8-IGF1R xenograft flank model; format: in vivo, mice; settings: 50 mg/kg i.p. b.i.d. for 10 days, end of dosing (day 26)
Text: Figure 4 A-928605 abrogates modifications of IGF pathway signaling proteins in vitro and is efficacious in the CD8-IGF1R xenograft flank model in vivo. […] Cyclin D1 is a transcriptional target of the IGF signaling pathway and is therefore not affected by this one hour treatment.

HCC-827 flank tumors = test: HCC-827 NSCLC xenograft flank model
Description: All animal studies were conducted in accordance with the guidelines established by the internal Institutional Animal Care and Use Committees. For CD8 IGF1R flank tumors, 5.0 × 10^5 cells/mouse were mixed with an equal volume of Matrigel (BD Biosciences) and injected subcutaneously into the flank of 6- to 8-week-old female nu/nu mice (22 g; Charles River Laboratories). The tumors were allowed to grow approximately 225 mm^3, and mice were reassigned into treatment groups (N = 10) based on tumor volume. At the initiation of treatment, the mean tumor volume ± SEM of the groups was approximately 231 ± 10 mm^3. For MiaPaCa-2 flank tumors, 1.0 × 10^6 cells/mouse were mixed with an equal volume of Matrigel and injected subcutaneously into the flank of 6- to 8-week-old female SCID mice (20 g; Charles River Laboratories). The tumors were allowed to grow approximately 225 mm^3, and mice were reassigned into treatment groups (N = 10) based on tumor volume. At the initiation of treatment, the mean tumor volume ± SEM of the groups was approximately 210 ± 30 mm^3. […] The tumors were allowed to grow approximately 225 mm^3, and mice were reassigned into treatment groups (N = 10) based on tumor volume. At the initiation of treatment, the mean tumor volume ± SEM of the groups was approximately 300 ± 20 mm^3. In all flank models, tumor growth was periodically analyzed by measurement with digital calipers and tumor volume was estimated from the formula (L × W ^2)/2. For all flank models, the effect of treatment on tumor growth rate was assessed by determining %T/C [(mean tumor volume of treated group on day X ÷ mean tumor volume of control group on day X) × 100].
Erlotinib was dosed orally at 3.1 mg/kg, b.i.d. for 16 days.

IGF1R = IGF1R (Homo sapiens, UniProt P08069); test: In vitro kinase panel (kinome profile), IGF1R; format: biochemical
Sequence of IGF1R (P08069 31-1367, species assumed): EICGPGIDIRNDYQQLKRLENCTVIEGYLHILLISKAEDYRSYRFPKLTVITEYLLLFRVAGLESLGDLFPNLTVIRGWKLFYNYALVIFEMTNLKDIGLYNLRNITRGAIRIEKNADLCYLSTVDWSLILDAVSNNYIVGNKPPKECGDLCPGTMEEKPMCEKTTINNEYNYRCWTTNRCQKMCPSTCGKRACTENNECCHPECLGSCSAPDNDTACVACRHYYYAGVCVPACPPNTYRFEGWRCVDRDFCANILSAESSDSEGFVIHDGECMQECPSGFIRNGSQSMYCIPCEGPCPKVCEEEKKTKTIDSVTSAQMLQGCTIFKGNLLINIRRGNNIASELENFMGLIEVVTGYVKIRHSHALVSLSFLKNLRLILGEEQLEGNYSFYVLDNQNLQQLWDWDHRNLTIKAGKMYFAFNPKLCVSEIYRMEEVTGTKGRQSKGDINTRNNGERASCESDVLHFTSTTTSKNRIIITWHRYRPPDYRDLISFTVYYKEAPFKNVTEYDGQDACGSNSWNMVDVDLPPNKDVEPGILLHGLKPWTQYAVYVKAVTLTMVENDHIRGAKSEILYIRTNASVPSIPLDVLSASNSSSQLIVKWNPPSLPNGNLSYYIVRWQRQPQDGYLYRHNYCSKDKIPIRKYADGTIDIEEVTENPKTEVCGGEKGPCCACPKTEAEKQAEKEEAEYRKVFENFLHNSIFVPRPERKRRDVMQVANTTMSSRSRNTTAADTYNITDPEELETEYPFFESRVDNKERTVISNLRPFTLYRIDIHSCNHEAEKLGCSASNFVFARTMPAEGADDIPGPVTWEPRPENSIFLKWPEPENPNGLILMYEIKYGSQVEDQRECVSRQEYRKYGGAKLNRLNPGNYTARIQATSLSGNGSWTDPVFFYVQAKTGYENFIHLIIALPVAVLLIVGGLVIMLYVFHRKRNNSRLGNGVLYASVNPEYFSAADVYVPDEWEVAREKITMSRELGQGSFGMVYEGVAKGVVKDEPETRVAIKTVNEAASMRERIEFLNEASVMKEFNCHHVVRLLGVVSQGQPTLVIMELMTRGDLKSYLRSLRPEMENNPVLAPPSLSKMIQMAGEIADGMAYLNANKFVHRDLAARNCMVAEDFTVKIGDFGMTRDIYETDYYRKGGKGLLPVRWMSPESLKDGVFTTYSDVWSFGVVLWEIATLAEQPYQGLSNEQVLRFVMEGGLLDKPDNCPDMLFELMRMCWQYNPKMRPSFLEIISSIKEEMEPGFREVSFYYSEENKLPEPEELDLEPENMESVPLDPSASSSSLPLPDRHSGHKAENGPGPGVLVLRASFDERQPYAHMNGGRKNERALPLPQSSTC
Description: as §2

NIH-3T3 CD8-IGF1R cells [3] = test: Three day proliferation assay (MTS), NIH-3T3 CD8-IGF1R cells; format: cell-based
Description: as §1
(§3) All cells were grown in normal growth media containing 10% FBS. B, Cells were treated for 1 hour with A-928605 in a dose response analysis as shown. The CD8-IGF1R fusion protein runs as a doublet. C and D, Three day proliferation assay in the NIH-3T3 vector control cells (C) or CD8-IGF1R cells (D) with increasing amounts of six clinical small molecule inhibitors and A-928605. Compounds were run in duplicate at each indicated concentration. Results are representative of 5 separate assays. Intended targets of each small molecule inhibitor are as follows: lapatinib, ERBB2 and EGFR; gefitinib, EGFR; dasatinib, ABL and SRC; Sorafinib, multi-targeted; imatinib, ABL and KIT; erlotinib, EGFR.

[4] = test system: SK-N-FI renal subcapsule tumors; test: SK-N-FI neuroblastoma renal subcapsule xenograft model; format: in vivo, mice; settings: 37.5 mg/kg i.p. b.i.d. for 14 days, end of dosing (day 28)
Description: For SK-N-FI renal subcapsule tumors, mice were anesthetized with intramuscular injections of ketamine (40 mg/kg) and rompum (5 mg/kg) before surgery. […] The peritoneal cavity was closed with 4-0 suture and skin incision was closed with clip. Fourteen days after tumor cell injection, tumor growth was assessed in cohort mice by necropsy (see Figure 1B) and study mice were reassigned at that time to treatment groups (N = 10) based on injection order. At the end of the dosing period, tumor weight was determined by comparing the weight of the tumor bearing kidney to that of the contralateral kidney.
Figure 5 Efficacy of A-928605 in the SK-N-FI neuroblastoma xenograft as a renal subcapsule model. A, A-928605 inhibits proliferation of SK-N-FI cells in vitro. […] B, Representative photograph taken of the tumor bearing and contralateral kidneys prior to the initiation of dosing on day 14 post tumor cell injection, indicating a tumor weight of 0.07 g. C, Representative photograph taken of the tumor bearing and contralateral kidneys at the end of the dosing schedule (day 28).

IGF1R and IR = test: IGF1R versus IR in vitro enzyme activity and cellular phosphorylation; settings: in vitro enzyme activity and cellular phosphorylation (data not shown)
[5] = target: T1, epidermal growth factor receptor (EGFR) (Homo sapiens, UniProt P00533, DEL746-750); test: Cellular EGFR phosphorylation in A-431 and HCC827 cells; format: cell-based; settings: HCC827 cells; read-out: IC50 for inhibition of cellular EGFR phosphorylation
T1 construct: endogenous in cells; host or cells: A-431 and HCC827 cells
T1 sequence (P00533 with tags, fused parts or gaps DEL746-750): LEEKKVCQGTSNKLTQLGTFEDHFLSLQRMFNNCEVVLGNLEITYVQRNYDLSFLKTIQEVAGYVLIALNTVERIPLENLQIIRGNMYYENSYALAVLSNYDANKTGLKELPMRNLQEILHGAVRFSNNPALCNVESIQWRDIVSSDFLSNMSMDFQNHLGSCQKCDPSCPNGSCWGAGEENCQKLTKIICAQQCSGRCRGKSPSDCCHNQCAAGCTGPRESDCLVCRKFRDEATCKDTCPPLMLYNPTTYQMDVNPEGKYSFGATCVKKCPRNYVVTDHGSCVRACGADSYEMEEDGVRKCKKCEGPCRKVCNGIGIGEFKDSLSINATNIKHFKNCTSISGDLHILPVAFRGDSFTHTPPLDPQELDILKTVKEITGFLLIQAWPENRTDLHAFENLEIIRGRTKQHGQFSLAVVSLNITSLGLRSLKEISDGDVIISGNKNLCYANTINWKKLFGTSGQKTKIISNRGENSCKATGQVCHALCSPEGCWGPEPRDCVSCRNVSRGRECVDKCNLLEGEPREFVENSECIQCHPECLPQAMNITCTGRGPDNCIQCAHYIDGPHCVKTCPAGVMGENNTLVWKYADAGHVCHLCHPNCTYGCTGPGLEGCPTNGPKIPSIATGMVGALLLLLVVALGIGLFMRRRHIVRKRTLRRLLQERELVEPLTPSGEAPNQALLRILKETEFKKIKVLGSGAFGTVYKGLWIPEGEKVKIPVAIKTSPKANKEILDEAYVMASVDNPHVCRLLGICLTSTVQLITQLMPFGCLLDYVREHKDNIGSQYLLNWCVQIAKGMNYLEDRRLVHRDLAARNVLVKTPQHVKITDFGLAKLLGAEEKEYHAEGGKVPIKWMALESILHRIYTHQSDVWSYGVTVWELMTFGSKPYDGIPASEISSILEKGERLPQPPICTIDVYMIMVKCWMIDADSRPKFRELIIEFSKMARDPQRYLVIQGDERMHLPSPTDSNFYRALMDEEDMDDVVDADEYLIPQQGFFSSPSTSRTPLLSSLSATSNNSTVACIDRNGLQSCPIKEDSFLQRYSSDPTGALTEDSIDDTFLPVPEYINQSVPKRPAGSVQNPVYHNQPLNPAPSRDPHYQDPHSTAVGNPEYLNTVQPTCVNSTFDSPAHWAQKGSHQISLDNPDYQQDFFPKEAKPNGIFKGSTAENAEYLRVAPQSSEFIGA

[6] = target: T2, epidermal growth factor receptor (EGFR) (Homo sapiens, UniProt P00533); test: as above; format: cell-based; settings: A-431 cells; read-out: IC50 for inhibition of cellular EGFR phosphorylation
T2 construct: endogenous in cells; host or cells: A-431 and HCC827 cells
T2 sequence (P00533 25-1210): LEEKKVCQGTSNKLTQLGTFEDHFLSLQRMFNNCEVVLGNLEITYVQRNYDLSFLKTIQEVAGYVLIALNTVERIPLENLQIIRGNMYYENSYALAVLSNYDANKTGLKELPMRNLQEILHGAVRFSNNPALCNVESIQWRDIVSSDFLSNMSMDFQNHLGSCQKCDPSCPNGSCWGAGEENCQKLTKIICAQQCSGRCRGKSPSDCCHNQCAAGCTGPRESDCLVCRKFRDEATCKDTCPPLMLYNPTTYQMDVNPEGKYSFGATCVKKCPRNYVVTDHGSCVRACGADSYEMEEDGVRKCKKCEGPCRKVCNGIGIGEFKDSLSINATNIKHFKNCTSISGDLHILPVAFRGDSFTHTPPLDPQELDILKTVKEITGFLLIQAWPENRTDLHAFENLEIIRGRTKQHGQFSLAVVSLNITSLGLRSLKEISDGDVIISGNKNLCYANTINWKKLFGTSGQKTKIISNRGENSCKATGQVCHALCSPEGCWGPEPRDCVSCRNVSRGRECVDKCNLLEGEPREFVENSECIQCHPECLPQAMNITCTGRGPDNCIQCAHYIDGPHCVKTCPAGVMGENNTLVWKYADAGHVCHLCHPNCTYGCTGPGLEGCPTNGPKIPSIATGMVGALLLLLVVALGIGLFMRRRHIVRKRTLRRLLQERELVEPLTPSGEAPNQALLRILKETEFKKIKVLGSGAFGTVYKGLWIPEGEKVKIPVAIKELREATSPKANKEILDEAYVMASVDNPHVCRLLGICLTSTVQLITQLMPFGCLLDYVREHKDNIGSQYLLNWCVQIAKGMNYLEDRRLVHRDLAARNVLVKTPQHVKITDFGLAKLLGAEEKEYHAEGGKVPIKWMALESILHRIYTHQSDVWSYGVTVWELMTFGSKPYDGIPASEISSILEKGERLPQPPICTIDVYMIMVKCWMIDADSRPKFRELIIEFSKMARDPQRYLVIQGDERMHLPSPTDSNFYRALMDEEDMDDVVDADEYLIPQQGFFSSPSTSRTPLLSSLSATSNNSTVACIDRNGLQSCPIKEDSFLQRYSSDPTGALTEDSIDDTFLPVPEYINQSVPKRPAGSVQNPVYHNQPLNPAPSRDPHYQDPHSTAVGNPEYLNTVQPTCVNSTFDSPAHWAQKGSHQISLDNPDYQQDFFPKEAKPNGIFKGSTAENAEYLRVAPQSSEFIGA

CD8-IGF1R = target: T3, CD8-IGF1R (Homo sapiens, UniProt P01732+P08069); test: Western blot of IGF1R pathway phosphorylation and Cyclin D1 in NIH-3T3 CD8-IGF1R cells; format: cell-based, mouse; design: phosphorylation of the IGF1R cytotail, AKT and ERK1/2 / Cyclin D1 expression: dose or concentration left out as unconfirmed
T3 construct: cytoplasmic domain of human IGF1R (amino acids 959-1368); expressed in transfected cells
T3 sequence (P01732+P08069 fused): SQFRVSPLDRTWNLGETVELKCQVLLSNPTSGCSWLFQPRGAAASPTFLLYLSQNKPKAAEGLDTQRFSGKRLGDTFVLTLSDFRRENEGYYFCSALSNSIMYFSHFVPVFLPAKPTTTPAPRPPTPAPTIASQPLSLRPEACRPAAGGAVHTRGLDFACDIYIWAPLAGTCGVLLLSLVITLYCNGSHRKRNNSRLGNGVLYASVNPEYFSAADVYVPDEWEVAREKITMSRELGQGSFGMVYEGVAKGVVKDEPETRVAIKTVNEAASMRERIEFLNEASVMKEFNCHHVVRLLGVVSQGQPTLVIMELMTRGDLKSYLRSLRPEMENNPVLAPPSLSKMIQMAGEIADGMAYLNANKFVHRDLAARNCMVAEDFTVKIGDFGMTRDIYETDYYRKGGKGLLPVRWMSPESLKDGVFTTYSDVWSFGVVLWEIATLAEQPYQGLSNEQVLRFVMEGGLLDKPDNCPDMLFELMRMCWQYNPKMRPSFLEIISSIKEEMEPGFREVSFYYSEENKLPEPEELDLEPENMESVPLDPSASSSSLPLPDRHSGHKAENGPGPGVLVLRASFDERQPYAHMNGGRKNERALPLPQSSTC
Description: NIH-3T3, SK-N-FI, MiaPaCa-2 and HCC827 cell lines were obtained from the American Type Culture Collection (ATCC, Manassas, VA). Cell lines were cultured and expanded in media according to ATCC guidelines. CD8-IGF1R was generated by an in-frame fusion of the extracellular and transmembrane domains of the human CD8α coding sequence (amino acids 1-207) followed by a BamHI restriction site to the cytoplasmic domain of human IGF1R (amino acids 959-1368). This product was cloned into the pIRESpuro3 vector (Clontech, Mountain View, CA) via AflII/NotI adaptors. NIH-3T3 CD8-IGF1R and vector control lines were generated by transfection of these constructs with FuGENE 6 (Roche Diagnostics, Basel, Switzerland) followed by selection with 2 μg/ml puromycin. Cells were dilution cloned and surviving colonies were screened for expression of the transgene. Cell clones positive for CD8-IGF1R expression and vector alone transfectants were pooled and remained under puromycin selection for the duration of the study.
Antibodies used included rabbit anti-ERK1/2 pTpY185/187 (Biosource, Camarillo, CA), rabbit anti-IGF-1Rβ and rabbit anti-Cyclin D1 (Santa Cruz Biotechnology, Inc., Santa Cruz, CA), rabbit anti-phospho-IGF-1Rβ (Tyr1135/1136)/IR (Tyr1150/1151), rabbit antiphospho-AKT (S473), rabbit anti-AKT, rabbit anti-ERK1/2, (Cell Signaling Technology, Inc., Beverly, MA) and mouse anti-ACTIN (Sigma, St. Louis, MO). All cell lysate samples were lysed directly in 2× LDS NuPAGE sample buffer with reducing reagent (Invitrogen, Carlsbad, CA) and were analyzed for levels of phosphorylated and total signaling proteins by Western blotting using the NuPAGE electrophoresis and transfer systems (Invitrogen, Carlsbad, CA) and near infrared detection.
All cells were grown in normal growth media containing 10% FBS. B, Cells were treated for 1 hour with A-928605 in a dose response analysis as shown. The CD8-IGF1R fusion protein runs as a doublet. […]

[7] = test system: NIH-3T3 vector control cells; test: Three day proliferation assay (MTS), NIH-3T3 vector control cells; format: cell-based; settings: 72 hours
Description: as §1, §3

SK-N-FI cells = test: SK-N-FI proliferation in vitro; format: cell-based, human; settings: SK-N-FI cell line
Description: as §1

NIH-3T3 CD8-IGF1R cells [8] = test: Morphology of CD8-IGF1R cells (phase contrast imaging); format: cell-based; settings: increasing concentrations, imaging two days after addition
Description: Supplementary file 1471-2407-9-314-S1.jpeg: Additional File 1 Supplementary Figure S1. Transformed morphology of the CD8-IGF1R cells. A, Phase contrast images of the NIH-3T3 vector control cells versus the NIH-3T3 CD8-IGF1R cells. B, Morphological dose response of the CD8-IGF1R line to A-928605 treatment. Cells were plated and allowed to adhere and proliferate overnight. The next day compound was added and imaging was performed two days later. The cellular morphology appears to revert back towards a naive 3T3 fibroblast at concentrations near or […] the IC50 of A-928605. All images were captured with a 20× objective. Click here for file

Nc1ncnc2c1c(-c1ccc3[nH]c(Cc4ccccc4Cl)nc3c1)nn2[C@H]1CC[C@H](N2CCOCC2)CC1 [A-928605, 3-(2-(2-chlorobenzyl)-1 H-benzo [d]imidazol-5-yl)-1-((1 r, 4 r)-4-morpholinocyclohexyl)-1 H-pyrazolo [3,4-d]pyrimidin-4-amine]
decrease in Ccn d1 transcripts (NIH-3T3 CD8-IGF1R cells [1]): 4.8 fold
up-regulation of Cdkn1a (p21) (NIH-3T3 CD8-IGF1R cells [1]): 1.5 fold
inhibition of anchorage-independent growth in soft agar (NIH-3T3 CD8-IGF1R cells [2]): completely inhibiting; also recorded: inhibits growth
Ki (IR): < 10 nM
%T/C, monotherapy compared to appropriate controls (MiaPaCa-2 flank tumors): approximately 80%
%T/C (tumor volume, treated vs. vehicle) (CD8 IGF1R flank tumors): 21%
tumor response in words (HCC-827 flank tumors; size-matched HCC827 xenografts, 16 days dosing): not consistently statistically different from its vehicle control; also recorded: partial responses
Ki (IGF1R): < 10 nM
IC50 (NIH-3T3 CD8-IGF1R cells [3]; Mus musculus, NIH3T3, CD8-IGF1R cells, 72 hours, read-out: IC50, inhibition of cellular proliferation): < 300 nM
%T/C (tumor weight, treated vs. vehicle) [4]: 58%
IC50s against IGF1R versus IR (IGF1R and IR): roughly equipotent
IC50 [5]: > 10000 nM
IC50 [6]: > 10000 nM
Cyclin D1 expression (CD8-IGF1R; 24-hours of treatment): significant decrease
IC50 (CD8-IGF1R; CD8-IGF1R cell line, 1 hour treatment, inhibition near known cellular IC50, read-out: cellular phosphorylation IC50 (dose-dependent inhibition of IGF1R phosphorylation)): ~100 nM
phosphorylation of the IGF1R cytotail, AKT and ERK1/2 (CD8-IGF1R; one hour of treatment, CD8-IGF1R cells): inhibition of phosphorylation
effect on cellular proliferation [7]: little effect
inhibition of proliferation in vitro (SK-N-FI cells): effectively inhibit proliferation
transformed phenotype (morphology) (NIH-3T3 CD8-IGF1R cells [8]): reversal of their transformed phenotype

Cc1nc(Nc2ncc(C(=O)Nc3c(C)cccc3Cl)s2)cc(N2CCN(CCO)CC2)n1 [Dasatinib, reference compound]
effect on cellular proliferation (NIH-3T3 CD8-IGF1R cells [3]; CD8-IGF1R line, concentrations up to 10 μM): no effect
effect on cellular proliferation [7]: potent inhibitor

C#Cc1cccc(Nc2ncnc3cc(OCCOC)c(OCCOC)cc23)c1 [erlotinib, reference compound]
tumor response in words (HCC-827 flank tumors; mouse, in vivo): partial responses
